Test results from US20220218701A1, “COMPOSITIONS AND METHODS COMPRISING ENDOTHELIN A RECEPTOR ANTAGONISTS AND ANDROGEN THERAPIES” (priority 2019, published 2022).
“Also recorded” adds a separate entry of the source.

Key:
osteoblast = conditions: cited from earlier work
[1] = test system: castrate-resistant prostate cancer (CRPC); conditions: phase 2, 288 men with CRPC, cited from earlier work
[2] = test system: metastatic prostate cancer; conditions: cited from earlier work
metastatic CRPC [3] = conditions: cited from earlier work
[4] = test system: prostate cancer bone metastasis; conditions: in vivo; cited from earlier work
[5] = test system: breast cancer osteosclerotic bone metastasis; conditions: mouse, in vivo; cited from earlier work
ETAR = target: T1, ETAR (Mus musculus, UniProt Q61614); assay: Il-6 expression (RT-PCR) in calvarial osteoblasts treated with ET-1; format: cell-based; conditions: 100 μM zibotentan pre-treatment six hours, then 10 nM ET-1 four hours
T1 construct: Murine calvarial osteoblasts were collected and cultured as previously described; endogenous in cells; host or cells: primary murine calvarial osteoblasts
T1 sequence (Q61614 21-427): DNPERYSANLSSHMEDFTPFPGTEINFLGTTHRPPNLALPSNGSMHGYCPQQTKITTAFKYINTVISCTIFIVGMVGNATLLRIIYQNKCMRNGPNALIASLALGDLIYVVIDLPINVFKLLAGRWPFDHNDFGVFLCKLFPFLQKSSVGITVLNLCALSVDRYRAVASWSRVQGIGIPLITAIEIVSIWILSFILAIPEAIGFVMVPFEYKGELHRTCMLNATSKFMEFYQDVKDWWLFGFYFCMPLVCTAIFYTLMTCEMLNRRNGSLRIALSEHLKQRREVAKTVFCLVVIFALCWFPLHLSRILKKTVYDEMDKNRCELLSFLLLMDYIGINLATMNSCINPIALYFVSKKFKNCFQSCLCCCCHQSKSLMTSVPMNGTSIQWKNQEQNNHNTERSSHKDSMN
Description: Calvarial osteoblasts were cultured and pre-treated with or without 100 μM zibotentan for six hours followed by treatment with or without 10 nM ET-1 for four hours. RNA has then harvested and analyzed for the expression of Il-6, a marker of ET-1 action in osteoblasts. Il-6 expression was normalized to the housekeeping gene Rpl32. Data was analyzed using one-way ANOVA followed by Tukey's multiple comparison test.
Murine calvarial osteoblasts were collected and cultured as previously described^7. Two days post-confluence, osteoblasts were treated in triplicate with or without 100 μM zibotentan for six hours. This was followed by treatment with or without 10 nM ET-1 for four hours. RNA was collected using Direct-zol™ RNA MiniPrep Plus kit (Zymo, Irvine, Calif.) according to the manufacturer's directions. RNA was then analyzed by RT-PCR using the iTaq Universal SYBR Green One-Step Kit and a C1000 Thermal Cycler with a CFX96 fluorescent real-time attachment (Bio-Rad, Hercules, Calif.) using the following primers: Il-6: F, ccg gag agg aga ctt cac ag; R, gga aat tgg ggt agg aag ga; and Rpl32: F, cag ggt gcg gag aag gtt caa ggg; R, ctt aga gga cac gtt gtg agc aat. […] Changes in mRNA concentration were determined by subtracting […] (Δ=CtIl-6−CtRpl32). […] The fold difference was calculated as 2^ε.

[6] = test system: ARCaPM prostate cancer cell line; assay: ARCaPM prostate cancer bone metastasis model, intracardiac inoculation, castration or sham surgery; format: in vivo, athymic nude mice
Description: Forty-eight male athymic nude mice either underwent castration or sham surgery at four weeks of age. At 5 weeks of age, mice were inoculated with ARCaPM prostate cancer cell line into the left cardiac ventricle. […] Two days later, mice began zibotentan 25 mg/kg/day or vehicle control by gavage.
(§1) Forty-eight HSD athymic nude male mice were obtained from Harlan Sprague Dawley (Envigo, Indianapolis, Ind.) after undergoing castration or sham surgery. At five weeks of age, mice were anesthetized using isoflurane vaporizer anesthesia. ARCaPM prostate cancer cells were washed, resuspended in PBS, and inoculated into the left cardiac ventricle at a volume of 100 μl containing 1×10^5 cells, as previously described. Starting at seven days post-inoculation, mice were weighed every 2-3 days.
Zibotentan is an ETAR-specific antagonist and was obtained from AstraZeneca (Cambridge, England). Zibotentan was dissolved in 1% polysorbate 80 at a concentration of 5 mg/ml. Mice in the treatment group received zibotentan 25 mg/kg/day. Mice in the vehicle control group received an equivalent volume of 1% polysorbate 80 via gavage. Gavage treatments were started two days after the intracardiac inoculations (5 weeks+2 days of age) seven days/week. The dosing scheduled was changed to five days/week at 59 days post-inoculation.
(§2) Mice were anesthetized using an isoflurane vaporizer anesthetic unit and underwent radiographic imaging using a Faxitron UltraFocus 60 Digital Radiographic Unit (Faxitron, Tucson, Ariz.) every 2-4 weeks with attention paid to the appearance of sclerotic or lytic skeletal lesions.
Following euthanasia, mouse femora, tibiae, humeri, spines and other bones were harvested and fixed in 10% buffered formalin for 48 hours and decalcified in Immunocal (Decal Chemical Corp, Suffern, N.Y.) for an additional 48 hours. Bones were rinsed, processed and paraffin embedded. Blocks were cut into 5 μm sections, mounted onto charged glass slides, and air-dried overnight.
Static histomorphometric analysis was performed on embedded samples stained with hematoxylin, eosin, and orange G, a bone matrix stain. Images of the samples were taken at 4× with Nikon Eclipse 90i upright microscope and Nikon HD Cooled Color Digital Camera DXM1200C paired with Nikon ACT-1C software. Each sample produced 10 to 30 tiled scans of the whole specimen and were stitched using Adobe Photoshop CC. Tumor area was traced and measured on Adobe Photoshop CC with Cintiq 22HD touch (Wacom) tablet PC and stylus. Then, measured tumor area was divided by each subject's age in days for further statistical analysis.
Forty-eight male athymic nude mice underwent castration (24 mice) or sham surgery (24 mice) at three weeks of age. At five weeks of age, ARCaPM prostate cancer cells (1×10^5 cells in 100 μl) were inoculated into the left cardiac ventricle. […] Two days later, zibotentan 25 mg/kg/day or vehicle control treatments by gavage were started. This strategy produced four experimental groups: vehicle+sham (Veh+Sham), vehicle+castrate (Veh+Castr), zibotentan+sham (Zibo+Sham), and zibotentan+castrate (Zibo+Castr) (FIG. 2).

ET-1 = assay: Serum ET-1 ELISA at euthanasia in the ARCaPM model; format: in vivo, mice
Description: Sera were collected at euthanasia and frozen. Thawed sera were analyzed for ET-1 concentration using ELISA in the four experimental groups and further subdivided into the presence or absence of prostate cancer lesions. Data was analyzed using two-way ANOVA. Treatment with zibotentan was a significant source of statistical variation. Blood was collected at euthanasia. Sera was collected using serum-separator centrifuge tubes (BD Microtainer®, SST, Becton Dickinson, Franklin Lakes, N.J.), and frozen at −80° C. for later analyses. ET-1 concentration was measured in thawed sera using an ET-1 colorimetric ELISA kit (R&D Systems, Minneapolis, Minn.) and a BioTek Synergy HTX plate reader (Winooski, Vt.).

[7] = Body weight and adverse effects in the ARCaPM model; format: in vivo, athymic nude mice
Description: Mice body weights were measured starting at 7 days post-inoculation and continued every 2-3 days until the completion of the experiment at 152 days. Two days after inoculation, mice began to receive zibotentan or vehicle control. Due to potential adverse effects in the Zibo+Castr group, the dosing was reduced to 5 days/week starting at day 59 post inoculation. Veh=vehicle control; Zibo=zibotentan; Sham=sham surgery; Castr=castration
as §1, §2
The mice underwent radiographic imaging every 2-4 weeks to monitor for the development of bone lesions. Mice were also monitored frequently for abnormal behavior indicating the presence of a large tumor burden. Euthanasia was performed according to pre-determined humane endpoints—15% weight loss, paralysis, skeletal fractures, or any other signs of distress. Mice were weighed every 2-3 days (FIG. 3). As expected, mice in the castration groups had less weight gain compared to the sham groups, as has been reported elsewhere.

[8] = target: T2, endothelin B receptor (ETBR) (Homo sapiens, UniProt P24530); conditions: cited from earlier work
T2 sequence (P24530 27-442): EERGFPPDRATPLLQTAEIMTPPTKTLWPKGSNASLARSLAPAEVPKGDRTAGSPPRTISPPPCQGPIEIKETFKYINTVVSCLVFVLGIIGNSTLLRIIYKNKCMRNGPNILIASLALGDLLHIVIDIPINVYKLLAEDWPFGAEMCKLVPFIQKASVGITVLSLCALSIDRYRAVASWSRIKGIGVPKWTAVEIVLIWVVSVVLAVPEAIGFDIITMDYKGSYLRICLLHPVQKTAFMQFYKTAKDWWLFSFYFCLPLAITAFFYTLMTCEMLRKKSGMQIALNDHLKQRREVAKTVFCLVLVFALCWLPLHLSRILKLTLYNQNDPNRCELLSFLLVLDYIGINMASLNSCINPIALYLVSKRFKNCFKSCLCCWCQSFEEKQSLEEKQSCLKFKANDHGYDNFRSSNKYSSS

metastatic CRPC [9] = conditions: phase 2, 312 men with metastatic CRPC; increased from 17.3; cited from earlier work
[10] = test system: non-metastatic prostate cancer; conditions: phase 3, monotherapy, non-metastatic disease; stopped early; cited from earlier work
[11] = as reported by the applicant's group; cited from earlier work
[12] = Zibo + Castr group, zibotentan 25 mg/kg/day gavage
[13] = Zibo + Sham group, zibotentan 25 mg/kg/day gavage
[14] = Zibo+Sham vs Veh+Sham and Veh+Castr groups
[15] = effect of castration in zibotentan treated groups, Zibo+Castr vs. Zibo+Sham

In the case of `CCCCN(CCCC)C(=O)CN1C[C@H](c2ccc3c(c2)OCO3)[C@@H](C(=O)O)[C@@H]1c1ccc(OC)cc1` [atrasentan], the “anabolic effects of ET-1 on the osteoblast” value (osteoblast) is listed as “block”, the “prostate-specific antigen (PSA) progression” value [1] is listed as “delayed” and the time to progression ([1]; increased from 129) is listed as 196 days. The “time to progression (primary endpoint)” value ([2]; phase 3, 809 men with metastatic disease) was “did not reduce”, the “bone alkaline phosphatase progression” value ([2]; phase 3, secondary analyses) was “did reduce” and the “overall or progression-free survival compared to placebo” value (metastatic CRPC [3]; men with metastatic CRPC treated with docetaxel) was “did not improve”. The survival (metastatic CRPC [3]; patients with the highest circulating levels of bone turnover markers) was “survival benefit”, the bone lesions [4] was “significantly reduced” and the “lesions outside of the skeleton such as adrenal gland and liver” value [4] was “not lesions outside of the skeleton”. The “formation of osteoblastic lesions” value [5] was “blocked” and the “tumor progression outside of bone” value [5] was “not tumor progression outside of bone”.

In the case of `COc1nc(C)cnc1NS(=O)(=O)c1cccnc1-c1ccc(-c2nnco2)cc1` [zibotentan], the “Il-6 expression (marker of ET-1 action, normalized to Rpl32)” value (ETAR) is reported as “prevented the increase in Il-6 expression; also recorded: blocks ETAR signaling”, the “number of skeletal lesions, Left leg Prox tibia” value [6, 12] is reported as 1 and the “number of soft tissue lesions, TOTAL” value [6, 12] is reported as 0. The “number of skeletal lesions, Left leg Dist femur” value [6, 13] was 1, the “number of skeletal lesions, Left leg Prox tibia” value [6, 13] was 1 and the “number of skeletal lesions, Maxilla” value [6, 13] was 2. For the same compound, the “number of skeletal lesions, Rib” value [6, 13] was 1, the “number of skeletal lesions, Right arm Prox humerus” value [6, 13] was 1 and the “number of skeletal lesions, Right arm Prox radius” value [6, 13] was 1. The “number of skeletal lesions, TOTAL” value [6, 13] was 8, the “number of skeletal lesions, Thoracic spine T10” value [6, 13] was 1 and the “number of soft tissue lesions, Adrenal Right” value [6, 13] was 1. For the same compound, the “number of soft tissue lesions, Eye Left” value [6, 13] was 1, the “number of soft tissue lesions, TOTAL” value [6, 13] was 2 and the “time to bone-specific tumor events” value ([6]; Zibo+Castr compared to Zibo+Sham group, p=0.0250) was “longer”. For the same compound, the “detectable tumor at the completion of the experiment” value ([6]; Zibo+Castr group, day 152) was “No mouse”, the survival ([6]; Zibo+Castr vs Veh+Sham groups) was “no survival difference” and the “time to a tumor event (tumor-free status)” value ([6]; Zibo+Castr vs Zibo+Sham group, p=0.0149) was “significantly longer time to a tumor event”. For the same compound, the “radiographically apparent lesions at the end of the experiment” value ([6]; Zibo+Castr, 152 days) was “lack of radiographically apparent lesions”, the “survival (Kaplan-Meier)” value ([6]; Zibo+Sham group, p=0.0045) was “significantly shorter survival” and the “skeletal lesion area (histomorphometry)” value [6, 14] was “No significant differences”. For the same compound, the “tumor area adjusted to the day post-inoculation of euthanasia” value [6, 14] was “differences among the groups were not detected”, the survival ([6]; absence of androgen, Zibo+Castr vs. Veh+Castr, p=0.0050) was “improved survival” and the “number of skeletal lesions” value [6, 15] was “reduced the number of skeletal lesions”. For the same compound, the survival [6, 15] was “increased survival”, the survival ([6]; sham-operated mice, Zibo+Sham vs. Veh+Sham, p=0.0171) was “decrease survival” and the “serum ET-1 concentration” value (ET-1; zibotentan-treated tumor-bearing mice vs tumor-free) was “trend for higher serum ET-1”. The “serum ET-1 concentration” value (ET-1; zibotentan-treated vs vehicle control mice, sera at euthanasia) was “significant increase; also recorded: higher”, the body weight gain ([7]; Zibo+Castr group) was “lack of significant weight gain was more evident” and the “radiographic images, intestinal air” value ([7]; Zibo+Castr group) was “intestinal gas distension within the stomach and intestines”. The “mice that lost more than 15% of weight and were euthanized” value ([7]; Zibo+Castr group, 34 and 42 days post-inoculation, no tumor found) was “Two”, the abdominal distension ([7]; Zibo+Castr group, within 2-4 weeks of treatment initiation) was “developed abdominal distension” and the “unintended consequences of zibotentan and castration” value ([7]; combination of zibotentan and castration) was “weight loss, diffuse gas distention within the stomach and intestines, and respiratory epithelial inflammation”. For the same compound, the “affinity for the endothelin B receptor (ETBR)” value [8] was “no affinity”, the overall survival (metastatic CRPC [9]) was 24.5 months and the “overall survival (primary outcome)” value [10] was “lack of effect”. The “side effect underlying gastrointestinal effects” value [11] was “immune-related damage of nasal olfactory epithelium leading to aerophagia and intestinal distention”.
